Six compounds from patent publication US20260001928A1 (CORTERIA PHARMACEUTICALS, priority 2022, published 2026) can be followed below.

pEC50: −log10 of the molar value. *1 amine or outer side, *2 acyl side, *3 side chain or, on linkers, in order; H or OH if unused. Where a SMILES comes first, the peptide text is derived from it. Side-chain parts run from the residue outwards. [ ]: non-standard residue; d: D form. The star is where a group is joined. C20 diacid = O=C(O)CCCCCCCCCCCCCCCCCCC(=O)*; C18 diacid = O=C(O)CCCCCCCCCCCCCCCCC(=O)*; γGlu = O=C(O)[C@H](CCC(=O)[*:2])N[*:1]; NMeI = CC[C@H](C)[C@H](NC)C(=O)O; AEEA = NCCOCCOCC(=O)O; Aib = CC(C)(N)C(=O)O Some results are limits rather than exact numbers.

Data set [1] in a line: In vivo metabolite identification on rat plasma samples after SC administration. The following applies: rat plasma after SC administration at 1 mg/kg. The method, then:
Software aided in vitro metabolite identification on SCts stability samples was performed using either Metabolite Pilot (Sciex) or Biopharma Finder (Thermo). In addition, metabolite identification using Metabolite Pilot was performed on plasma samples of Comp Y following SC administration to rat at 1 mg/kg.

Data set [2] can be described thus: In vitro subcutaneous tissue supernatant (SCts) stability and metabolite identification, rat. It counts as in vitro ADME. More on the design: remaining at 2 h: dose or concentration left out as unconfirmed.
A short description of data set [3]: In vitro plasma stability, human plasma. The following applies: Human PLM, 37° C. Type of data set: in vitro ADME. Also noted: dose or concentration left out as unconfirmed.
Protocol: In vitro plasma metabolic stability was studied in male Sprague Dawley rats and human. Test compounds were incubated at 3 M for 2 hours at 37° C. At each time point (0, 0.25, 1 and 2 h), samples were prepared for analysis by means of a single step protein precipitation technique by adding 150 μL of ethanol, 0.1% formic acid to 50 μL aliquots of plasma. Samples were mixed by vortex for homogeneity and then subjected to centrifugation at 14000 rpm for 15 min. The supernatant (100 μL) was collected, diluted with 100 μL of water, 0.1% formic acid and analyzed by LC-HRMS (TripleTOF 6600+, AB Sciex). For each test compound, the area ratios at each time point were compared to the 0 h area ratio and converted to a percentage remaining.
In a further data set the target is T1, human CRF2a receptor (Homo sapiens, UniProt Q13324).
T1 construct: expressed in transfected cells; host or cells: TeloHEAC cells
T1 sequence (Q13324 1-411): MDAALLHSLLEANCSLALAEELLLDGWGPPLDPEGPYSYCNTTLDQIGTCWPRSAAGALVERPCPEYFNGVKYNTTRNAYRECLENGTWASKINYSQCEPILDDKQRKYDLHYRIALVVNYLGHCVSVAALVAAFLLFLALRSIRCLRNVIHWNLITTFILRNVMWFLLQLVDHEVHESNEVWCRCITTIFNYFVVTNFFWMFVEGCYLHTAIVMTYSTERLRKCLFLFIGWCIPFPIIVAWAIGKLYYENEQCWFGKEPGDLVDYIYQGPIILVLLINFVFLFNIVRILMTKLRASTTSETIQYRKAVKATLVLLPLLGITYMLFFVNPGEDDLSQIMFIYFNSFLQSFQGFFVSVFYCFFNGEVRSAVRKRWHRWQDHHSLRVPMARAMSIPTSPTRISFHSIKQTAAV
Kind of data set: Activity at human CRF2a receptor, cAMP functional assay in TeloHEAC cells. It counts as cell-based. The settings on record: TeloHEAC cells stably expressing human CRF2a receptor, relative to urocortin 2 (100 nM = 100%). In a few lines: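 TeloHEAC cells stably expressing human CRF2a (10000 cells/well, suspended in HBSS/20 mM HEPES with 2 mM IBMX) were exposed to compounds for 30 min at 37 °C. cAMP was read as the 665/620 nm fluorescence ratio after 1 h at room temperature. EC50 was derived relative to 100 nM urocortin 2, set as 100%.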

A short description of data set [4]: Pharmacokinetics in male Sprague Dawley rats after subcutaneous administration. Type of data set: in vivo. The following applies: plasma, rat, IV, 0.05 mg/kg.
The nature of data set [5]: Chemical stability in buffer (pH 7.4 / pH 4.5), % purity loss. Type of data set: physicochemical. The settings on record: 100 mM phosphate buffer pH 7.4; 40° C. vs 5° C.; 14 or 28 days. An outline of the steps: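 LC-UV gave % loss after 14 or 28 days of storage at 5 °C or 40 °C. Samples were diluted supernatants from compound incubated 1 h at room temperature at 10 mg/mL target, in 100 mM acetate pH 4.5 or 100 mM phosphate pH 7.4.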

In a further data set the target is T2, CFR1R receptor (Homo sapiens, UniProt P34998).
T2 construct: host or cells: CHO-K1 (clone 2)
T2 sequence (P34998 24-415): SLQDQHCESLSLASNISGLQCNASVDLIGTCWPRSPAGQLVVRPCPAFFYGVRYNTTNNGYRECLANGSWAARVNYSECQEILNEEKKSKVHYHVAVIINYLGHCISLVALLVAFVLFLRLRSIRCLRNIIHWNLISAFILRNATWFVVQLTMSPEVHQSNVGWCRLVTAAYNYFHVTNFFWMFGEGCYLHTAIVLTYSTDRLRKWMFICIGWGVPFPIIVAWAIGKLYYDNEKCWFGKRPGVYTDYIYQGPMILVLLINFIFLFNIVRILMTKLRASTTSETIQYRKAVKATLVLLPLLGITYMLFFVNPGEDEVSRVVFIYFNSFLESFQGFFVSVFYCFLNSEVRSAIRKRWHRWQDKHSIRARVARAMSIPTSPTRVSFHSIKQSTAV
In words: Activity at anti-target CFR1R receptor, cAMP assay in CRF1R-overexpression CHO-K1 cells. The following applies: 100% = Sauvagine at 100 nM. It counts as cell-based. An outline of the steps:
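Uses frozen stocks of CHO-K1 clone 2 cells overexpressing human CRF1R, plated at 4000 cells/well final, with cAMP measured by the same protocol as the TeloHAEC line. Full-activation control: 100 nM Sauvagine.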
Background: Cyclic AMP is a second messenger, typically raised through Gs and lowered through Gi signalling.

A further data set concerns Sprague Dawley rats. In words: Effect on systolic blood pressure, telemetry in Sprague Dawley rats. It counts as in vivo, rat. The settings on record: 0.1 mg/kg SC. An outline of the steps: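 Values are % change from a 1 h pre-dose baseline in systolic pressure, tracked by telemetry for up to 48 hours after a single 0.1 mg/kg subcutaneous dose. Rats (Sprague Dawley, n=2 per peptide) carried aortic catheters and recovered at least 10 days post-surgery; duration of action marks the last time point still showing an effect.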

A further data set can be described thus: in vitro. Also noted: dose or concentration left out as unconfirmed. The following applies: dog, plasma.
Data set [6] is described as follows: In vitro plasma stability, rat plasma. Type of data set: in vitro ADME. More on the design: remaining at 2 h: dose or concentration left out as unconfirmed. The following applies: male, Sprague Dawley, plasma; Rat PLM, 37° C.
Data set [7] can be described thus: subcutaneous tissue supernatant (SCts). The settings on record: male Sprague Dawley rats, 37° C., up to 2 hours.
A further data set in a line: Dog PLM. The settings on record: 37° C., up to 2 hours.
The nature of a further data set: Rat PLM. The settings on record: male Sprague Dawley rats, 37° C., up to 2 hours.
A further data set can be described thus: Human PLM. The settings on record: 37° C., up to 2 hours.

For the compound `CC[C@H](C)[C@H](N)C(=O)N[C@H](C(=O)N[C@@H](CC(C)C)C(=O)N[C@@H](CO)C(=O)N[C@@H](CC(C)C)C(=O)N[C@@H](CC(=O)O)C(=O)N[C@H](C(=O)N1CCC[C@H]1C(=O)N[C@H](C(=O)N[C@@H](CCCCN)C(=O)N[C@@H](CC(C)C)C(=O)N[C@@H](CCCCNC(=O)COCCOCCNC(=O)COCCOCCNC(=O)CC[C@H](NC(=O)CCCCCCCCCCCCCCCCC(=O)O)C(=O)O)C(=O)N[C@@H](CCCCN)C(=O)N[C@H](C(=O)N[C@@H](CC(C)C)C(=O)N[C@@H](CC(C)C)C(=O)N[C@@H](CCC(=O)O)C(=O)N[C@@H](CCC(N)=O)C(=O)N[C@@H](CCC(=O)O)C(=O)N[C@@H](CCCCN)C(=O)N[C@@H](CCC(N)=O)C(=O)N[C@@H](CCCCN)C(=O)N[C@@H](CCCCN)C(=O)N[C@@H](CCC(N)=O)C(=O)N[C@@H](CCCNC(=N)N)C(=O)N[C@@H](CCC(=O)O)C(=O)N[C@@H](CCC(N)=O)C(=O)N[C@@H](C)C(=O)N[C@@H](CCC(=O)O)C(=O)N[C@H](C(=O)N[C@@H](CC(N)=O)C(=O)N[C@@H](CCCCN)C(=O)N[C@@H](CCC(N)=O)C(=O)N[C@H](C(=O)N[C@@H](CC(C)C)C(=O)N[C@@H](C)C(=O)N[C@@H](CCC(N)=O)C(=O)N[C@H](C(N)=O)C(C)C)[C@@H](C)CC)[C@@H](C)O)[C@@H](C)CC)[C@@H](C)CC)C(C)C)C(C)C` [SEQ ID No. 149, reference compound] (H-IVLSLDVPIKLK([AEEA-AEEA-γGlu-C18 diacid])KILLEQEKQKKQREQAETNKQILAQV-NH2), the “major metabolic soft spot, in vivo” value in [1] was “N-terminus”. For the same compound, in data set [2] (in vitro soft spot identification, rat SCts), the “major metabolic soft spot, in vitro” value is reported as “N-terminus”.
The term pEC50 denotes −log10 of the EC50, conventionally taken in molar units. A word on the AUC(0-t): it is the area under the concentration-time curve up to a stated or last time point. As a reminder, the half-life is the time in which the quantity being followed falls by half. As to `CC[C@H](C)[C@H](NC)C(=O)N[C@H](C(=O)N[C@@H](CC(C)C)C(=O)N[C@@H](CO)C(=O)N[C@@H](CC(C)C)C(=O)N[C@@H](CC(=O)O)C(=O)N[C@@H](C(=O)N1CCC[C@H]1C(=O)N[C@H](C(=O)N[C@@H](CCCCN)C(=O)N[C@@H](CC(C)C)C(=O)N[C@@H](CCCCNC(=O)COCCOCCNC(=O)CC[C@H](NC(=O)CCCCCCCCCCCCCCCCCCC(=O)O)C(=O)O)C(=O)N[C@@H](CCCCN)C(=O)N[C@H](C(=O)N[C@@H](CC(C)C)C(=O)N[C@@H](CC(C)C)C(=O)N[C@@H](CCC(=O)O)C(=O)N[C@@H](CCC(N)=O)C(=O)N[C@@H](CCC(=O)O)C(=O)N[C@@H](CCCCN)C(=O)N[C@@H](CCC(N)=O)C(=O)N[C@@H](CCCCN)C(=O)N[C@@H](CCC(=O)O)C(=O)N[C@@H](CCC(N)=O)C(=O)N[C@@H](CCCNC(=N)N)C(=O)N[C@@H](CCC(=O)O)C(=O)N[C@@H](CCC(N)=O)C(=O)N[C@@H](C)C(=O)N[C@@H](CCC(=O)O)C(=O)N[C@H](C(=O)N[C@@H](CC(N)=O)C(=O)NC(C)(C)C(=O)N[C@@H](CCC(N)=O)C(=O)N[C@H](C(=O)N[C@@H](CC(C)C)C(=O)N[C@@H](C)C(=O)N[C@@H](CCC(N)=O)C(=O)N[C@H](C(N)=O)C(C)C)[C@@H](C)CC)[C@@H](C)O)[C@@H](C)CC)[C@@H](C)CC)C(C)C)C(C)C` [compound 233] (H-[NMeI]VLSLD[dV]PIKLK([AEEA-γGlu-C20 diacid])KILLEQEKQKEQREQAETN[Aib]QILAQV-NH2), the fraction remaining at 2 h in data set [3] was 100%; in data set [2] (male, Sprague Dawley, rat subcutaneous tissue supernatant (SCts), 37° C, 2 h) it was 56%; in the data set “in vitro”, 99%; in data set [6], 106%. The pEC50 at human CRF2a receptor is 9.92; on CFR1R receptor (cAMP), under 6.60. In data set [4], this compound had an AUC(0-t) of 4880 ng·h/mL. This compound also had a half-life in data set [4] of 9 h. Moreover, the “Buffer stability pH 7.4 % purity loss” value in [5] was 0.0/Not Tested %. In addition, the “Emax (% I)” value on CFR1R receptor turned out to be 8 % I. Further, in the data set on Sprague Dawley rats (8 h, n=2), the “Systolic blood pressure (Mean) % change from baseline, 8 h” value is 1%. Further, in the data set with Sprague Dawley rats (12 h, n=2), the “Systolic blood pressure (Mean) % change from baseline, 12 h” value is −8%. Further, the “Systolic blood pressure (Mean) % change from baseline, 24 h” value with Sprague Dawley rats (24 h, n=2) is listed as −11%. This compound also displayed a Duration of action in the data set on Sprague Dawley rats (last time point with an effect on BP still observed) of over 24 h.
Compound “Ac-IVLSLDvPIKLK*KILLEQEKQKAibQREQAETNAibQILAQV-NH2” registered a not cleaved in data set [7] of 95% remaining at 2 h.
Turning to “Ac-IVLSLDvPIKLK*KILLEQEKQKEQREQAETNAibQILAQV-NH2”, the percent remaining in the data set “Dog PLM” stood at 102% remaining at 2 hours. Also, the not cleaved in “Rat PLM” and in the data set “Human PLM” was 99% remaining at 2 hours throughout.
On to “NMeIVLSLDvPIKLK*KILLEQEKQKEQREQAETNAibQILAQV-NH2 [218]”, for which the percent remaining in the data set “Dog PLM” stood at 102% remaining at 2 hours. Further, the not cleaved in “Rat PLM” amounted to 109% remaining at 2 hours; in “Human PLM”, 99% remaining at 2 hours.
The matching figures for “NMeIVLSLDvPIKLK*KILLEQEKQKEQREQAETNAibQILAQV-NH2 [233]”: 99% remaining at 2 hours, 106% remaining at 2 hours and 100% remaining at 2 hours.
